One test has as its system pAKT in BT474 cells. The experiment in a line: Cell-based pAKT HTRF assay in BT474 cells. Conditions: BT474 cells, 4 hr incubation, read-out: pAKT inhibition IC50 in BT474 cells. In short, it runs like this:
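pAKT was measured by HTRF after a 4 hr compound exposure in BT474 cells (DMEM, 10% FBS, 0.25% DMSO), using 9 concentrations from 3 μM in 3-fold steps. Cell lysates were incubated with the Eu cryptate/d2 antibody pair at room temperature for 4 to 24 h. The plate was then read at 320 nm excitation and 615 nm emission.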
(In general: In TR-FRET formats the signal depends on donor and acceptor labels being close together.)

For test [1], the target named is Cys242 in human PIK3CA (157-299) (Homo sapiens (Human), UniProt P42336). The experiment in a line: Covalent modification assay using MALDI-TOF MS. Type of test: biochemical. The settings on record: 4 h reaction time point. In short, it runs like this:
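Covalent adduct formation was read by linear-mode MALDI-TOF with sinapinic acid matrix, reported as modified-protein peak height divided by total protein peak heights. Reactions held PIK3CA (157-299) at 1 or 3.33 μM in HEPES/NaCl/MgCl2 buffer, pH 7.3, sampled after 15 min to 4 h at room temperature.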

Where [2] appears, read: 1 μM protein target, 1:5 protein to compound ratio (compounds 853-1279).
Where [3] appears, read: 3.33 μM protein target, 1:7.5 protein to compound ratio (compounds 1-852).
[4] abbreviates: Homo sapiens, BT-474, Compounds 10-999.

Read-outs that look alike come from different tables or passages of the source.

Sequence of Cys242 in human PIK3CA (157-299) (P42336 157-299): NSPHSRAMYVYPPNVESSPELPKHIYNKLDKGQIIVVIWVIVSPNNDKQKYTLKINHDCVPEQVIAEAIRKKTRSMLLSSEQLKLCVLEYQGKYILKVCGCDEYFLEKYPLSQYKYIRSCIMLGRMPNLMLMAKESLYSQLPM

One may read the IC50 as the concentration at which inhibition is half-maximal. As to `C=CC(=O)N1CCn2nc(-c3nc(-c4ccc5c(cnn5CCN(C)C)c4)c4ccsc4c3-c3c(F)cc(F)cc3OCCOC)cc2C1C` (stereo not shown) [Compound 1105], the concentration for half-maximal inhibition (IC50) in the test on pAKT in BT474 cells (Compounds 1000-1279) was less than 100 nM. Besides, the “% of modification” value in test [1] (setting [2]) is “A (percent of modification of PIK3CA protein ≥75%)”.
For the molecule `C=CC(=O)N1CCn2nc(-c3nc(-c4ccc(C(=O)NCCN(C)C)cc4)c4ccsc4c3-c3c(F)cc(F)cc3OCCOC)cc2C1C` (stereo not shown) [Compound 1059], in the test on pAKT in BT474 cells (Compounds 1000-1279), the IC50 was less than 100 nM. In test [1] (setting [2]), the “% of modification” value was “A (percent of modification of PIK3CA protein ≥75%)”.
In the same order, the values of `C=CC(=O)N1CCn2nc(-c3nc(-c4ccc(CC(=O)NC)cc4)c4ccsc4c3-c3c(F)cc(F)cc3OCCOC)cc2C1C` (stereo not shown) [Compound 1017] are less than 100 nM and “A (percent of modification of PIK3CA protein ≥75%)”.
For `C=CC(=O)N1Cc2cc(-c3nc(-c4ccc(C5(N)COC5)cc4)c4ccsc4c3-c3c(F)cc(F)cc3OC(C)C)nn2[C@@H](C)C1` [Compound 511], the IC50 in the test on pAKT in BT474 cells (Compounds 10-999) was less than 100 nM. Further, the “% of modification” value in test [1] (setting [3]) is “A (percent of modification of PIK3CA protein ≥75%)”.
`C=CC(=O)N1CCn2nc(-c3nc(-c4ccc5c(c4)CCN(C)CC5)c4ccsc4c3-c3c(F)cc(F)cc3OCCOC)cc2C1C` (stereo not shown) [Compound 994]: the 50% inhibitory concentration (IC50) in the test with pAKT in BT474 cells (Compounds 10-999) is 100 to 1000 nM. Also, the “% of modification” value in test [1] (setting [2]) is “D (percent of modification <25%)”.
For the molecule `C=CC(=O)N1CCc2nc(-c3nc(-c4ccc5c(c4)CNC5=O)c4ccsc4c3-c3c(F)cc(F)cc3OCCOC)sc2C1` [Compound 364], the IC50 with pAKT in BT474 cells (Compounds 10-999) is less than 100 nM. Also, the “% of modification” value in test [1] (setting [3]) is listed as “A (percent of modification of PIK3CA protein ≥75%)”.
For the molecule `C=CC(=O)N1CCc2ncc(-c3nc(-c4ccc5c(c4)CN(C)C5=O)c4ccsc4c3-c3c(F)cc(F)cc3OC(C)C)cc2C1` [Compound 407], in the test on pAKT in BT474 cells (Compounds 10-999), the IC50 was less than 100 nM. Besides, the “% of modification” value in test [1] (setting [3]) is recorded as “A (percent of modification of PIK3CA protein ≥75%)”.
In the same order, the values of `C=CC(=O)N1Cc2cc(-c3nc(-c4cnc(C)nc4)c4ccsc4c3-c3c(F)cc(F)cc3OC[C@@H](C)O)nn2C[C@H]1C` [Compound 757] are less than 100 nM and “A (percent of modification of PIK3CA protein ≥75%)”.
Regarding `C=CC(=O)N1CCn2nc(-c3nc(-c4cnc(N(C)C)nc4)c4ccsc4c3-c3c(F)cc(F)cc3OCCOC)cc2C1C` (stereo not shown) [Compound 1037], in the test with pAKT in BT474 cells (Compounds 1000-1279), the IC50 was less than 100 nM. In test [1] (setting [2]), the “% of modification” value is “A (percent of modification of PIK3CA protein ≥75%)”.
For `C=C(F)C(=O)N1CCn2nc(-c3nc(-c4ccc5c(c4)CCN(C)C5)c4ccsc4c3-c3ccc(F)cc3OCC(F)F)cc2C1` [Compound 325], the 50% inhibitory concentration (IC50) in the test with pAKT in BT474 cells (Compounds 10-999) is 100 to 1000 nM. The “% of modification” value in test [1] (setting [3]) is listed as “B (50%<percent of modification <75%)”.
On to `C=CC(=O)N1CCn2nc(-c3nc(-c4ccc(C(=O)N5CC(F)C(F)C5)cc4)c4ccsc4c3-c3c(F)cc(F)cc3OCCOC)cc2C1C` (stereo not shown) [Compound 1189], for which the IC50 in the test on pAKT in BT474 cells (Compounds 1000-1279) was less than 100 nM. In addition, the “% of modification” value in test [1] (setting [2]) is reported as “A (percent of modification of PIK3CA protein ≥75%)”.
With `C=CC(=O)N1CCn2nc(-c3nc(-c4cn(C)cn4)c4ccsc4c3-c3c(F)cc(F)cc3OCC(C)O)cc2C1C` (stereo not shown) [Compound 833], the 50% inhibitory concentration (IC50) in the test on pAKT in BT474 cells (Compounds 10-999) is less than 100 nM. The “% of modification” value in test [1] (setting [3]) was “A (percent of modification of PIK3CA protein ≥75%)”.
In the same order, the values of `C=CC(=O)N1CCc2cc(-c3nc(-c4cnn(C)c4)c4ccsc4c3-c3c(F)cc(F)cc3OC(C)C)nn2CC1` [Compound 569] are less than 100 nM and “A (percent of modification of PIK3CA protein ≥75%)”.
In the case of `COCCOc1cc(F)cc(F)c1-c1c(-c2cc3n(n2)CCN(C(=O)C=CCN(C)C)C3C)nc(-c2ccc3c(cnn3C)c2)c2ccsc12` (stereo not shown) [Compound 1232], in the test with pAKT in BT474 cells (Compounds 1000-1279), the half-inhibitory concentration (IC50) is less than 100 nM. The “% of modification” value in test [1] (setting [2]) is on record as “A (percent of modification of PIK3CA protein ≥75%)”.
As for `C=CC(=O)N1CC(n2cc(-c3nc(-c4cnn(C)c(=O)c4)c4ccsc4c3-c3ccc(F)cc3OC)cn2)C1` [Compound 183], in the test on pAKT in BT474 cells (Compounds 10-999), the IC50 is 100 to 1000 nM. Further, in test [1] (setting [3]), the “% of modification” value was “A (percent of modification of PIK3CA protein ≥75%)”.
Taken in the same sequence, the figures for `C=CC(=O)N1Cc2cc(-c3nc(-c4ccc5c(c4)CCN(C)C5)c4ccsc4c3-c3c(F)cc(F)cc3OC)nn2C(C)C1` (stereo not shown) [Compound 484] were less than 100 nM and “A (percent of modification of PIK3CA protein ≥75%)”.
Taken in the same sequence, the figures for `C=CC(=O)N1CC(n2cc(-c3nc(-c4ccc5c(c4)CCNC5)c4ccsc4c3-c3cnn(C)c3)cn2)C1` [Compound 90] were greater than 3000 nM and “D (percent of modification <25%)”.
Taken in the same sequence, the figures for `C=CC(=O)N1CC(n2cc(-c3nc(-c4cnn(CF)c4)c4ccsc4c3-c3ccc(F)cc3OCCOC)cn2)C1` [Compound 236] were 100 to 1000 nM and “A (percent of modification of PIK3CA protein ≥75%)”.
With `C=CC(=O)N1CC[C@H](n2ccc(-c3nc(-c4cnn(C)c4)c4ccsc4c3-c3ccc(F)cc3OC(C)C)n2)C1` [Compound 318], in the test on pAKT in BT474 cells (Compounds 10-999), the half-inhibitory concentration (IC50) is less than 100 nM. The “% of modification” value in test [1] (setting [3]) is recorded as “A (percent of modification of PIK3CA protein ≥75%)”.
As for `C=CC(=O)N1CCc2nc(-c3nc(-c4ccc5c(c4)CNC5=O)c4ccsc4c3-c3c(F)cc(F)cc3OC(C)C)sc2C1` [Compound 311, 5-[7-(2,4-difluoro-6-isopropoxy-phenyl)-6-(5-prop-2-enoyl-6,7-dihydro-4H-thiazolo[5,4-c]pyridin-2-yl)thieno[3,2-c]pyridin-4-yl]isoindolin-1-one], the concentration for half-maximal inhibition (IC50) in the test on pAKT in BT474 cells (setting [4]) is less than 100 nM. Moreover, in test [1] (setting [3]), the “% of modification” value is given as “A (percent of modification of PIK3CA protein ≥75%)”.
As to `C=CC(=O)N1CCn2nc(-c3nc(-c4ccc5c(c4)CNC(=O)C5)c4ccsc4c3-c3c(F)cc(F)cc3OCCOC)cc2C1C` (stereo not shown) [Compound 931], the IC50 in the test with pAKT in BT474 cells (Compounds 10-999) is less than 100 nM. Further, the “% of modification” value in test [1] (setting [2]) is listed as “A (percent of modification of PIK3CA protein ≥75%)”.
On to `C=CC(=O)N1CCn2nc(-c3nc(-c4ccc5c(c4)CNC(=O)C5)c4ccsc4c3-c3c(F)cc(F)cc3OCCOC)cc2C1C` (stereo not shown) [Compound 926], for which the 50% inhibitory concentration (IC50) in the test on pAKT in BT474 cells (Compounds 10-999) was less than 100 nM. Also, the “% of modification” value in test [1] (setting [2]) is reported as “A (percent of modification of PIK3CA protein ≥75%)”.
In the case of `C=CC(=O)N1Cc2cc(-c3nc(-c4ccc5c(c4)CS(=O)(=O)C5)c4ccsc4c3-c3c(F)cc(F)cc3OCCOC)nn2C[C@H]1C` [Compound 746], the 50% inhibitory concentration (IC50) with pAKT in BT474 cells (Compounds 10-999) is less than 100 nM. The “% of modification” value in test [1] (setting [3]) was “A (percent of modification of PIK3CA protein ≥75%)”.
With `C=CC(=O)N1CCn2nc(-c3nc(-c4ccc5ncn(C)c5c4)c4ccsc4c3-c3c(F)cc(F)cc3OC[C@@H](C)O)cc2[C@@H]1C` [Compound 647], in the test on pAKT in BT474 cells (Compounds 10-999), the 50% inhibitory concentration (IC50) is less than 100 nM. Further, in test [1] (setting [3]), the “% of modification” value is given as “A (percent of modification of PIK3CA protein ≥75%)”.
As for `C=CC(=O)N1CCn2nc(-c3nc(-c4ccc5c(c4)CCN(C(C)C)C5)c4ccsc4c3-c3ccc(F)cc3OC)cc2C1` [Compound 263], the IC50 with pAKT in BT474 cells (Compounds 10-999) is less than 100 nM. Besides, in test [1] (setting [3]), the “% of modification” value is “A (percent of modification of PIK3CA protein ≥75%)”.
Taken in the same sequence, the figures for `C=CC(=O)N1CCn2nc(-c3nc(-c4ccnc(N)c4)c4ccsc4c3-c3ccc(F)cc3OCCO)nc2C1` [Compound 197] were less than 100 nM and “A (percent of modification of PIK3CA protein ≥75%)”.
Taken in the same sequence, the figures for `C=CC(=O)N1CCn2nc(-c3nc(-c4ccc5cnn(C)c5c4)c4ccsc4c3-c3c(F)cc(F)cc3OCC(C)O)cc2C1C` (stereo not shown) [Compound 677] were less than 100 nM and “A (percent of modification of PIK3CA protein ≥75%)”.
With `C=CC(=O)N1CCn2nc(-c3nc(-c4ccc5c(c4)C(=O)NC5)c4ccsc4c3-c3c(F)cc(F)cc3OCCOC)cc2[C@H]1C` [Compound 845, 6-((S)-6-((R)-5-acryloyl-4-methyl-4,5,6,7-tetrahydropyrazolo[1,5-a]pyrazin-2-yl)-7-(2,4-difluoro-6-(2-methoxyethoxy)phenyl)thieno[3,2-c]pyridin-4-yl)isoindolin-1-one], the IC50 with pAKT in BT474 cells (setting [4]) was less than 100 nM. The “% of modification” value in test [1] (setting [3]) is “A (percent of modification of PIK3CA protein ≥75%)”.
Taken in the same sequence, the figures for `C=CC(=O)N1CCn2nc(-c3cc(-c4cnn(C)c4)cnc3-c3ccc(F)cc3OCCOC)cc2C1` [Compound 281, 1-[2-[2-[4-fluoro-2-(2-methoxyethoxy)phenyl]-5-(1-methylpyrazol-4-yl)-3-pyridyl]-6,7-dihydro-4H-pyrazolo[1,5-a]pyrazin-5-yl]prop-2-en-1-one] were greater than 3000 nM and “C (25%≤percent of modification <50%)”.
As for `C=CC(=O)N1CCn2nc(-c3nc(-c4ccc5oc(C)nc5c4)c4ccsc4c3-c3c(F)cc(F)cc3OCCO)cc2C1C` (stereo not shown) [Compound 789], the IC50 in the test on pAKT in BT474 cells (Compounds 10-999) is less than 100 nM. The “% of modification” value in test [1] (setting [3]) is listed as “A (percent of modification of PIK3CA protein ≥75%)”.
In the same order, the values of `C=CC(=O)N1CCc2ncc(-c3nc(-c4ccc5c(c4)CCNCC5)c4ccsc4c3-c3ccc(F)cc3OC)cc2C1` [Compound 103] are 100 to 1000 nM and “A (percent of modification of PIK3CA protein ≥75%)”.
As for `C=CC(=O)N1CCn2nc(-c3nc(-c4ccc(=O)n(CC(F)F)c4)c4ccsc4c3-c3c(F)cc(F)cc3OCCOC)cc2C1C` (stereo not shown) [Compound 988], in the test with pAKT in BT474 cells (Compounds 10-999), the IC50 is less than 100 nM. In addition, the “% of modification” value in test [1] (setting [2]) is listed as “A (percent of modification of PIK3CA protein ≥75%)”.
